Experimental data: patent US8207211B2, “Photosensitizers for targeted photodynamic therapy” (The General Hospital Corporation, priority 2005, dated 2012)

Tests used:
C. albicans [1] = assay: Photodynamic inactivation (PDI), CFU survival, 405-nm light (Example 8); type: cell-based, Candida albicans; settings: 10-20 μM, 16 J/cm^2 of 405-nm light
Description: (§1) Four microbial species were used in this study. Briefly, Escherichia coli was purchased from ATCC (ATCC #25922), Pseudomonas aeruginosa, two clinical isolates, were obtained; UCBP PA 14 from L. Rahme (Massachusetts General Hospital) and PA 767K from Kim Lewis (Tufts University), slime deficient mutant of Staphylococcus aureus was obtained from Gerald B Pier (Channing Laboratories). Yeast strain Candida albicans was purchased from ATCC (ATCC #18804). Exponential cultures obtained by reculturing stationary overnight cultures were used for all experiments. Bacteria were grown at 37° C. in BHI broth to a cell density of 10^8 cells per mL. C. albicans was grown 37° C. in YM medium to 10^7 cells/mL.
(§2) Six fullerene derivatives (NI1-3 and CI1-3) were evaluated. […] Concentration of fullerene derivatives used in the experiments varied between 1 and 100 μM.
(§3) Fullerene derivatives were mixed with microbial suspensions and incubated in the dark at room temperature for 10 minutes. Excess fullerenes were either washed out of, or left in, the suspensions before illumination. […]
(§4) During illumination, aliquots of 20 μL were taken to determine the colony-forming units. […] Colonies were counted and survival fraction was determined as percent of survival compared to control. […]

C. albicans [2] = assay: Photodynamic inactivation (PDI), CFU survival, white light (red light for TBO); type: cell-based, Candida albicans; settings: 10 μM, 10 min
Protocol: (§5) Staphylococcus aureus (ATCC #35556), Escherichia coli (ATCC #25922), and Pseudomonas aeruginosa (ATCC #BAA-47; PAO1) were cultured in brain-heart infusion (BHI) broth (Difco, BD Diagnosttic Systems, Sparks, Md.) at 37° C. in aerobic conditions in a shaker at 150 rpm. Candida albicans (ATCC #18804) is grown in YM broth (Difco). Exponential cultures obtained by reculturing stationary overnight precultures were used for experiments.
(§6) E. coli, P. aeruginosa, and S. aureus are grown in fresh medium for approximately 1 hr to a density of about 10^8 cells/ml; the OD values at 650 nm are 0.6, 0.8, and 0.8, respectively. C. albicans is grown for approximately 4 hr to an approximate density of 10^8 cells/ml, corresponding to an OD of 6 at 650 nm (measured at 10-fold dilution). Cells were used for experiments in the mid-log growth phase.
(§7) A noncoherent lamp with filtered liquid light guides, e.g., a LumaCare™ LC122 lamp (MBG Technologies, Inc., Newport Beach, Calif.) was used to provide illumination of PS. More specifically, for illumination of fullerenes, a broad-band white light band pass filter (400-700 nm) was used, whereas for TBO, a band pass filter at 620-650 nm was used. The lamp was adjusted to give a uniform spot of about 4 cm diameter with an irradiance of 200 mW/cm^2, as measured with a power meter, e.g., a model DMM 199 meter with 201 Standard head (Coherent, Santa Clara, Calif.).
(§8) Typically, derivatized fullerenes prepared as described above are dissolved in DMSO to provide stock solutions having final concentrations of about 5 mM. […] All stock solutions were stored in the dark at room temperature.
(§9) In some experiments, for example in studies described in Examples below, suspensions of S. aureus cells (10^8 per ml) were incubated with derivatized fullerenes such as NI-1-3 and CI1-3 at a concentration of 100 μM in PBS at room temperature for 10 min. In other experiments, the bacterial suspension was centrifuged (4000×g for 10 min) after incubation and resuspended in fresh PBS before illumination; the latter procedure was referred to herein as a “wash.” E. coli, P. aeruginosa, and C. albicans were used at concentrations of about 10^8 cells per ml.
(§10) Illumination was carried out from above on microbial cell suspensions in wells of a 24-well plate. Aliquots were removed at times corresponding to the delivery of calculated fluences of light, and were serially diluted in PBS and streaked on square BHI or YM agar plates according to the method of Jett et al. (Jett, B. D., Hatter, K. L., Huycke, M. M., and Gilmore, M. S. (1997). Simplified agar plate method for quantifying viable bacteria. Biotechniques 23, 648-650). Survival fractions were calculated with reference to cells incubated in PBS alone. Values on killing curves at 0 J/cm^2 represent the dark toxicity of the fullerenes or other PS tested. Control cells were treated with light and no PS and also analyzed for viability.

P. aeruginosa = assay: as above; type: cell-based, Pseudomonas aeruginosa; settings: 10 μM, 10 min, white light up to 50 J/cm^2
Protocol: as §5, §6, §7, §8, §9, §10

E. coli [3] = assay: as above; type: cell-based, Escherichia coli; settings: 10 μM
Protocol: as §5, §6, §7, §8, §9, §10

S. aureus = assay: Photodynamic inactivation (PDI), CFU survival, 405-nm light (Example 8); type: cell-based, Staphylococcus aureus
Description: as §1, §2
Fullerene derivatives were mixed with microbial suspensions and incubated in the dark at room temperature for 10 minutes. Excess fullerenes were either washed out of, or left in, the suspensions before illumination. Aliquots of 100 μL were placed on three well hanging drop slides and illuminated with either a 405-nm laser (Nichia Chemical Industries) at an irradiance of 100 mW/cm^2, or with white light at room temperature. White light was 400-700 nm Gaussian distribution from LumaCare™ lamp with filtered liquid light guide, as described above.
During illumination, aliquots of 20 μL were taken to determine the colony-forming units. The contents of the wells were mixed before sampling. The aliquots were serially diluted 10-fold in PBS without Ca^++/Mg^++ to give dilutions of 10^−1−10^−6 times the original concentrations, and were streaked horizontally on square BHI agar plates. Plates were incubated at 37° C. overnight. Colonies were counted and survival fraction was determined as percent of survival compared to control. Microbial suspensions incubated with fullerene derivatives in DMSO in the absence of light and bacteria illuminated in the absence of fullerene derivatives were used as controls. […]

E. coli [4] = assay: as above; type: cell-based, Escherichia coli; settings: 10-20 μM, 16 J/cm^2 of 405-nm light
Description: as §1, §2, §3, §4

[5] = Octanol-water distribution coefficient; type: physicochemical; settings: 1-octanol/DI water, absorbance at 330 nm
Protocol: Each compound was dissolved in a minimum amount of DMSO: CI1 (0.9 mg in 200 μl), CI2 (5.3 mg in 200 μl), CI3 (5.4 mg in 200 μl). Ten ml of DI water and 10 ml of 1-octanol were added in each compound and vigorously shaken for 2 min. and the vials of the compounds were settled down overnight. The phases were separated and UV-spectra of each phase were analyzed. Distribution coefficient of each compound was determined using absorbance of aqueous phases and organic phases at 330 nm.

C[N+]1(C)Cc2c(c3c4ccc5c6ccc7c8ccc9c%10c%11c%12c(c2c2c3c3c4c5c4c6c7c5c8c9c%11c6c(c%122)c3c4c56)C2C[N+](C)(C)CC%102)C1 (stereo not shown) [CI2]
killing of C. albicans (C. albicans [1]): high levels of killing
PDT activity against C. albicans (C. albicans [2]; white light up to 50 J/cm^2): effectively killed
relative effectiveness in killing C. albicans (C. albicans [2]; with a wash, white light): much better than CI1
PDT activity against P. aeruginosa (P. aeruginosa): effectively killed
change of E. coli killing in the presence of serum versus no serum (E. coli [3]; 10 min, 10% FBS, with a wash, white light): about 1 log
PDT activity against E. coli (E. coli [3]; 10 min, white light up to 50 J/cm^2): effectively killed
killing of E. coli (E. coli [3]; with a wash, 2 J/cm^2 white light): 4 logs
PDI of S. aureus (S. aureus; 100 μM, 10 min, 405 nm light 0-200 J/cm^2): most potent
killing of S. aureus (S. aureus; 1-μM, 8 J/cm^2, 405 nm light): 6 logs
potency relative to the other fullerene derivatives (S. aureus; S. aureus, 1 μM and 8 J/cm^2 versus 100 μM screen): approximately 1000 times
killing of E. coli (E. coli [4]): high levels of killing
Kow (octanol-water partition constant) [5]: 1.28
LogKow [5]: 0.11
